Measurements reported in the NIST ThermoML archive (doi:10.1007/s10765-005-5566-6).
± gives the expanded uncertainty stated by the source.

Experiment: xn = mol fraction of the nth substance listed
Details: Gas, Hot wire method

C [methane] + O=C=O
Details	thermal conductivity [W/m/K]
375 K, 919 kPa, x1 = 0.2493	0.02872 ± 0.00051
375 K, 919 kPa, x1 = 0.4994	0.03475 ± 0.00061
375 K, 930 kPa, x1 = 0.7496	0.04098 ± 0.00071
375 K, 1460 kPa, x1 = 0.2493	0.02883 ± 0.00051
375 K, 1528 kPa, x1 = 0.7496	0.04104 ± 0.00071
375 K, 1578 kPa, x1 = 0.4994	0.0348 ± 0.00061
375 K, 1986 kPa, x1 = 0.2493	0.02895 ± 0.00052
375 K, 2135 kPa, x1 = 0.7496	0.04117 ± 0.00071
375 K, 2220 kPa, x1 = 0.4994	0.03492 ± 0.00061
375 K, 2510 kPa, x1 = 0.2493	0.02913 ± 0.00052
375 K, 2740 kPa, x1 = 0.7496	0.04129 ± 0.00072
375 K, 2840 kPa, x1 = 0.4994	0.0352 ± 0.00062
375 K, 3015 kPa, x1 = 0.2493	0.02945 ± 0.00053
375 K, 3310 kPa, x1 = 0.7496	0.04145 ± 0.00072
375 K, 3480 kPa, x1 = 0.4994	0.03545 ± 0.00062
375 K, 3510 kPa, x1 = 0.2493	0.0297 ± 0.00053
375 K, 3915 kPa, x1 = 0.7496	0.04181 ± 0.00073
375 K, 4005 kPa, x1 = 0.2493	0.02993 ± 0.00054
375 K, 4100 kPa, x1 = 0.4994	0.03561 ± 0.00063
375 K, 4490 kPa, x1 = 0.7496	0.04204 ± 0.00073
375 K, 4500 kPa, x1 = 0.2493	0.0302 ± 0.00054
375 K, 4715 kPa, x1 = 0.4994	0.03598 ± 0.00063
375 K, 4975 kPa, x1 = 0.2493	0.03051 ± 0.00055
375 K, 5440 kPa, x1 = 0.2493	0.03075 ± 0.00055
375 K, 5855 kPa, x1 = 0.4994	0.03682 ± 0.00065
375 K, 6910 kPa, x1 = 0.7496	0.04355 ± 0.00076
375 K, 6930 kPa, x1 = 0.4994	0.03739 ± 0.00066
375 K, 8000 kPa, x1 = 0.4994	0.03823 ± 0.00068
375 K, 9330 kPa, x1 = 0.7496	0.04538 ± 0.0008
375 K, 11600 kPa, x1 = 0.7496	0.04722 ± 0.00083
400 K, 983 kPa, x1 = 0.2493	0.03152 ± 0.00056
400 K, 986 kPa, x1 = 0.4994	0.03807 ± 0.00066
400 K, 993 kPa, x1 = 0.7496	0.04503 ± 0.00077
400 K, 1410 kPa, x1 = 0.2493	0.0316 ± 0.00056
400 K, 1690 kPa, x1 = 0.4994	0.03812 ± 0.00066
400 K, 1700 kPa, x1 = 0.7496	0.04501 ± 0.00077
400 K, 1820 kPa, x1 = 0.2493	0.03172 ± 0.00056
400 K, 2230 kPa, x1 = 0.2493	0.03183 ± 0.00056
400 K, 2378 kPa, x1 = 0.4994	0.03826 ± 0.00067
400 K, 2393 kPa, x1 = 0.7496	0.04519 ± 0.00078
400 K, 2635 kPa, x1 = 0.2493	0.03187 ± 0.00056
400 K, 3040 kPa, x1 = 0.2493	0.03201 ± 0.00057
400 K, 3061 kPa, x1 = 0.4994	0.03844 ± 0.00067
400 K, 3115 kPa, x1 = 0.7496	0.04526 ± 0.00078
400 K, 3435 kPa, x1 = 0.2493	0.03228 ± 0.00057
400 K, 3740 kPa, x1 = 0.4994	0.03866 ± 0.00068
400 K, 3770 kPa, x1 = 0.7496	0.04535 ± 0.00078
400 K, 3850 kPa, x1 = 0.2493	0.03241 ± 0.00057
400 K, 4240 kPa, x1 = 0.2493	0.03258 ± 0.00058
400 K, 4390 kPa, x1 = 0.4994	0.03887 ± 0.00068
400 K, 4460 kPa, x1 = 0.7496	0.04578 ± 0.00079
400 K, 4615 kPa, x1 = 0.2493	0.03271 ± 0.00058
400 K, 5060 kPa, x1 = 0.4994	0.03918 ± 0.00069
400 K, 5140 kPa, x1 = 0.7496	0.04598 ± 0.0008
400 K, 5667 kPa, x1 = 0.4994	0.03961 ± 0.00069
400 K, 6180 kPa, x1 = 0.4994	0.0398 ± 0.0007
400 K, 6670 kPa, x1 = 0.7496	0.04688 ± 0.00082
400 K, 6710 kPa, x1 = 0.4994	0.04014 ± 0.00071
400 K, 8110 kPa, x1 = 0.7496	0.04756 ± 0.00083
400 K, 9545 kPa, x1 = 0.7496	0.04861 ± 0.00085
425 K, 1048 kPa, x1 = 0.2493	0.03418 ± 0.0006
425 K, 1050 kPa, x1 = 0.4994	0.04164 ± 0.00072
425 K, 1050 kPa, x1 = 0.7496	0.04889 ± 0.00083
425 K, 1530 kPa, x1 = 0.2493	0.03411 ± 0.0006
425 K, 1799 kPa, x1 = 0.4994	0.04146 ± 0.00072
425 K, 1810 kPa, x1 = 0.7496	0.04908 ± 0.00084
425 K, 1938 kPa, x1 = 0.2493	0.03436 ± 0.0006
425 K, 2390 kPa, x1 = 0.2493	0.03434 ± 0.0006
425 K, 2554 kPa, x1 = 0.4994	0.04156 ± 0.00072
425 K, 2558 kPa, x1 = 0.7496	0.04898 ± 0.00084
425 K, 2810 kPa, x1 = 0.2493	0.03448 ± 0.00061
425 K, 3260 kPa, x1 = 0.2493	0.03452 ± 0.00061
425 K, 3260 kPa, x1 = 0.4994	0.04176 ± 0.00072
425 K, 3300 kPa, x1 = 0.7496	0.04919 ± 0.00084
425 K, 3690 kPa, x1 = 0.2493	0.03472 ± 0.00061
425 K, 4000 kPa, x1 = 0.4994	0.04192 ± 0.00073
425 K, 4050 kPa, x1 = 0.7496	0.04919 ± 0.00085
425 K, 4120 kPa, x1 = 0.2493	0.0349 ± 0.00062
425 K, 4540 kPa, x1 = 0.2493	0.03506 ± 0.00062
425 K, 4730 kPa, x1 = 0.4994	0.04207 ± 0.00073
425 K, 4800 kPa, x1 = 0.7496	0.0498 ± 0.00086
425 K, 4960 kPa, x1 = 0.2493	0.0353 ± 0.00062
425 K, 5460 kPa, x1 = 0.4994	0.04245 ± 0.00074
425 K, 5520 kPa, x1 = 0.7496	0.05001 ± 0.00086
425 K, 6410 kPa, x1 = 0.4994	0.04284 ± 0.00075
425 K, 7380 kPa, x1 = 0.4994	0.04335 ± 0.00076
425 K, 7670 kPa, x1 = 0.7496	0.05089 ± 0.00088
425 K, 8310 kPa, x1 = 0.4994	0.04385 ± 0.00077
425 K, 9820 kPa, x1 = 0.7496	0.05188 ± 0.00091
425 K, 11970 kPa, x1 = 0.7496	0.05348 ± 0.00094
